Values quoted from earlier work, collected in patent US11744789B2, “Method for dyeing keratinous material, comprising the use of an organosilicon compound, a colored effect pigment and a sealing reagent III” (Henkel AG & Co. KGaA, priority 2019, dated 2023).

Details: for solubility in water: 25° C.

| solubility in water (in words) (at 25° C.) | Compound | solubility in water |
| --- | --- | --- |
|  | O=S(=O)(O)c1ccc(N=Nc2c(O)ccc3ccccc23)cc1 [Acid Orange 7, 4-[(2-hydroxy-1-naphthyl)azo]benzene sulphonate] | more than 7 g/L |
| highly soluble in water | O=C(O)C1=NN(c2ccc(S(=O)(=O)O)cc2)C(=O)C1N=Nc1ccc(S(=O)(=O)O)cc1 (stereo not drawn) [Acid Yellow 23, 4,5-dihydro-5-oxo-1-(4-sulfophenyl)-4-((4-sulfophenyl)azo)-1H-pyrazole-3-carboxylic acid] |  |
|  | O=[N+]([O-])c1cc([N+](=O)[O-])c2ccc(S(=O)(=O)O)cc2c1O [Acid Yellow 9, 8-hydroxy-5,7-dinitro-2-naphthalenesulfonic acid] | above 40 g/L |
